Target: T1, Msh2–Msh6 (Saccharomyces cerevisiae, UniProt P25847+Q03834)
T1 sequence (P25847 1-964): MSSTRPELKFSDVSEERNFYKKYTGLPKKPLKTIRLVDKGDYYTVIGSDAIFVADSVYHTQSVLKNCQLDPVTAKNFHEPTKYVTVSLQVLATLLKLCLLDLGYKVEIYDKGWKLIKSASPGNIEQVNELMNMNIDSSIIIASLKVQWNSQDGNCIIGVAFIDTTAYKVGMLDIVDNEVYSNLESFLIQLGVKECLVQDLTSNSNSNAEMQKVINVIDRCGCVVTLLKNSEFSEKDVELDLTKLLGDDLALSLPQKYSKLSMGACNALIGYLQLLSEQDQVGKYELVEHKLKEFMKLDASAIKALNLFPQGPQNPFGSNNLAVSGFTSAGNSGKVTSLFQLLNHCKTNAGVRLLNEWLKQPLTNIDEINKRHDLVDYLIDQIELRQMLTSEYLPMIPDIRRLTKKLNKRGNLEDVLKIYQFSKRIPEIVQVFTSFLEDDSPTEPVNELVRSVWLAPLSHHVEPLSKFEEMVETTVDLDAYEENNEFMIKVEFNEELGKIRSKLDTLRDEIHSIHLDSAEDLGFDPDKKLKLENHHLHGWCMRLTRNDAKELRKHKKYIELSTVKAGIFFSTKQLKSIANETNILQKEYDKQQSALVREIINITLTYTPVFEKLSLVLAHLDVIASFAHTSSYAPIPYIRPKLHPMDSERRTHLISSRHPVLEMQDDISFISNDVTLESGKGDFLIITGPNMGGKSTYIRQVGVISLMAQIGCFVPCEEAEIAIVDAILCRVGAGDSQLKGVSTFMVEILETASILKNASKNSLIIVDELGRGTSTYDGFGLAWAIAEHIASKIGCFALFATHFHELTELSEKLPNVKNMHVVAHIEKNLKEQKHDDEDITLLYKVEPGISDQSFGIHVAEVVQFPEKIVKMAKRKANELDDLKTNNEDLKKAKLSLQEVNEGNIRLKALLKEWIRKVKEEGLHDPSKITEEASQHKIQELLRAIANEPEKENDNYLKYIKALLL
T1 sequence (Q03834 1-1242): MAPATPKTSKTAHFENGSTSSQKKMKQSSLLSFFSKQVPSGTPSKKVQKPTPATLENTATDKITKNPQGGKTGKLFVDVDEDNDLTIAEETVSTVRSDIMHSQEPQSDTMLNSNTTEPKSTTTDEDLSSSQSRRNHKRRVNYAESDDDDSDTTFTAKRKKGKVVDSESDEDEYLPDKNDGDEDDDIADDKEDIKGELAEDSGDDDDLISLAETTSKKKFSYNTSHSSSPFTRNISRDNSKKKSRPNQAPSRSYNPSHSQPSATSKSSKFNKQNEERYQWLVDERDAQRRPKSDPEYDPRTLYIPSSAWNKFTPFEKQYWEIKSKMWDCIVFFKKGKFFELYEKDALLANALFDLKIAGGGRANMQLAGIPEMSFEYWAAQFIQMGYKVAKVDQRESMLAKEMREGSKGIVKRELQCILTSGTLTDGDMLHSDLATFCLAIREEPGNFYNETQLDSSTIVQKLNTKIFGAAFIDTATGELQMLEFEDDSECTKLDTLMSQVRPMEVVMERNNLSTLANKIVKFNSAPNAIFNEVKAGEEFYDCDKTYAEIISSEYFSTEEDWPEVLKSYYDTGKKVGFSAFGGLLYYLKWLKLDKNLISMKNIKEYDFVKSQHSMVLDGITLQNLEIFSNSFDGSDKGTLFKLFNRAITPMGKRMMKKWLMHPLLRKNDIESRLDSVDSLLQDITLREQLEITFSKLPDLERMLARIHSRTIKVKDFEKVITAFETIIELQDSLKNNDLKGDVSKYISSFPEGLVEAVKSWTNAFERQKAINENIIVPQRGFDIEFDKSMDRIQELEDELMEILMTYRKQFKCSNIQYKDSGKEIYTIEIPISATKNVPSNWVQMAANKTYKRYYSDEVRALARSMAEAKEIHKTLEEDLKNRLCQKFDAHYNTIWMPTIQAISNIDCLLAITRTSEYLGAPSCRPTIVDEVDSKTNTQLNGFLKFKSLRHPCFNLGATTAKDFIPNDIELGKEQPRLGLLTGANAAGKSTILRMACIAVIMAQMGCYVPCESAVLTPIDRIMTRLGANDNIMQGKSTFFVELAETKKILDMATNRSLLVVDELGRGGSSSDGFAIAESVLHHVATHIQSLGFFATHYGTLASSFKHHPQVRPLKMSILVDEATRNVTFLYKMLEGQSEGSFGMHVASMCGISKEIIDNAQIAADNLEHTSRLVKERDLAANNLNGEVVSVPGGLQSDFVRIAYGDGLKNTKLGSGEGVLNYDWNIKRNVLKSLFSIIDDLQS
Assay: UV cross-linking of [γ-32P]ATP, SDS-PAGE, phosphorimaging
Assay type: binding
Conditions: labelled compound; reference complex; no Mg2+, EDTA, pH 8, on ice; Msh2 site at 60 μM ATP, Msh6 site at 1 μM ATP

For Nc1ncnc2c1ncn2[C@@H]1O[C@H](COP(=O)(O)OP(=O)(O)OP(=O)(O)O)[C@@H](O)[C@H]1O [ATP], the “UV cross-linking of [γ-32P]ATP, SDS-PAGE, phosphorimaging” value was “ATP binding at these concentrations was compared with WT Msh2–Msh6”.

Source: publication PMC6254361, “The properties of Msh2–Msh6 ATP binding mutants suggest a signal amplification mechanism in DNA mismatch repair” (The Journal of Biological Chemistry, 2018)
